Test results published in patent US9452154B2, “Methods for treating HCV” (Gilead Sciences, Inc., priority 2010, dated 2016).
Values joined by “and” are separate entries in the source; they are usually repeats but may differ in a detail not shown here. Equal entries are not always repeated. Where two headings read alike, the source gives them in different places.

Experiments:
HCV genotype 1a replicon [1] = assay: Biological Example 3: HCV genotype 1a replicon assay, EC50; type: cell-based; conditions: Hepatitis C virus, 72 h, 3 days, read-out: EC50
Description: The HCV genotype 1a replicon cell line used in this study was described previously. The cells were grown in cell culture medium containing Dulbecco's Modified Eagle Medium (DMEM) with GlutaMAX (Gibco, Carlsbad, Calif., Cat#10569-044), supplemented with 10% FBS (HyClone, Logan, Utah, Cat#SH30071.03), 100 Units/mL Penicillin, 100 μg/mL Streptomycin (Gibco, Carlsbad, Calif., Cat#15140-122), and 0.1 mM non-essential amino acids (Gibco, Carlsbad, Calif., Cat#11140-050). Replicon cells were maintained in 0.5 mg/mL Geneticin (Invitrogen, Carlsbad, Calif., Cat#10131-035) to prevent the loss of HCV replicon. The cells were passaged every 3-4 days before reaching confluency.
(§1) [formula] where XC is the fluorescence signal from the compound-treated well; MB is the average fluorescence signal from puromycin-treated wells; MD is the average fluorescence signal from DMSO-treated wells. The anti-HCV replication activity was determined by the luminescence signal generated from the reporter renilla luciferase of the HCV replicon. The percent inhibition on HCV replicon was calculated using equation 1, where XC is the luminescence signal from compound-treated well; MB is average luminescence signal from the ITMN-191-treated wells; MD is the average luminescence signal from DMSO-treated wells.
(§2) Both CC50 and EC50 values were obtained using Pipeline Pilot 5.0 software package (Accelrys, San Diego, Calif.) by nonlinear regression fitting of experimental data to equation 2: […]

[2] = Drug-drug interaction: exposure on co-administration with Compound 2
[3] = test system: Genotype 1b replicon cells; assay: Biological Example 6: compound concentration required to suppress replicon RNA by 1-1.5 log over 6 days (QRT-PCR); type: cell-based, HCV; conditions: 6 day assay
Description: Flasks were incubated at 37° C., media and compounds were refreshed every two days. After 6 days of incubation the replicon cells were collected for RNA extraction and replicon RNA QRT-PCR analysis.

[4] = test system: Huh-7 cells carrying a HCV genotype 1a replicon; assay: Biological Example 3: cytotoxicity in combination studies (MacSynergy II)
GT-1b Huh-lunet cells = assay: Biological Example 4: antiviral combination studies with Compound 5 (MacSynergy II); type: cell-based, HCV; conditions: in combination with Compound 5, 1b replicon cells
[5] = test system: GT1b and GT1a mutant replicons; assay: Biological Example 8: summary of cross resistance of mutant replicons; type: cell-based, HCV
Description: (§3) GT1b and GT1a replicons carrying Renilla Luciferase reporter were used to generate the mutant replicons. The mutations were introduced into the replicon construct by site-directed mutagenesis and confirmed by sequencing. Mutant replicon RNAs were generated from DNA by in vitro transcription and transfected into Huh-7 Lunet or C1 cells
(§4) Compounds were serially diluted 1:3 in 100% DMSO (Sigma). These serial dilutions were added to the cells at a 1:200 dilution to achieve a final concentration of 0.5% DMSO in a total volume of 200 μL. […] EC50 values were calculated using Prism.
(§5) For comparison, a fold change of 0-3 is considered “sensitive”, a fold change of 3-10 is considered “low”, a fold change of 10-50 is considered “medium” and a fold change of greater than […] is considered “high”.

HCV 1b replicon system = assay: Biological Example 5: antiviral combination studies with Compound 6 (MacSynergy II); type: cell-based; conditions: in combination with Compound 6
[6] = Biological Example 3: cytotoxicity (calcein AM), CC50; type: cell-based; conditions: human, Huh-7 cells carrying a HCV genotype 1a replicon; HCV genotype 1a replicon cells; calcein AM
Description: The HCV replicon assay was a multiplex assay which can assess both cytotoxicity and anti-replicon activity from the same well. The CC50 assay was performed first.
The cytotoxicity effect was determined by calcein AM conversion to fluorescent product. The percent cytotoxicity was calculated by equation 1:
as §1, §2

HCV genotype 1a replicon [7] = assay: Biological Example 3: antiviral combination studies with Compound 4 (MacSynergy II); conditions: in combination with Compound 4
[8] = test system: NS3 GT1a mutant replicons; type: cell-based, HCV
Description: as §3, §4, §5

[9] = test system: NS3 GT1b mutant replicons; type: cell-based, HCV
Description: as §3, §4, §5

[10] = human; 800 mg/day; cited from earlier work
[11] = all single NS3 PI-resistant mutants
[12] = triple class mutants that confer resistance to PI, NS5A and Compound 1

## Fc1ccccc1-c1nc2ccn(Cc3ccc(-c4ccc(C(F)(F)F)cc4C(F)(F)F)nn3)cc-2n1 [Compound 1, 5-((6-(2,4-bis(trifluoromethyl)phenyl)pyridazin-3-yl)methyl)-2-(2-fluorophenyl)-5H-imidazo[4,5-c]pyridine]
HCV genotype 1a replicon [1]
  EC50: 0.019 ± 0.008 µM
[2]
  increase of exposure when combined with Compound 2: 2-3 ×
[3]
  Compound concentration able to induce replicon RNA 1-1.5 log drop: 10 nM
[4]; in combination with Compound 4
  Antagonism Volume (cytotoxicity): 0 ± 1 nM^2%
  Interaction (cytotoxicity): Additivity (Additivity: ≦25 and >−25 nM^2%)
  Synergy Volume (cytotoxicity): 13 ± 11 nM^2%
GT-1b Huh-lunet cells
  Antagonism Volume: 0 ± 0 nM^2
  Synergy Volume: 70 ± 26 nM^2
[5]; [11]
  susceptibility of mutants: full susceptibility
HCV 1b replicon system
  Antagonism Volume: −17 ± 0.7 nM^2
  Interaction: Minor Synergy
  Synergy Volume: 34 nM^2 and 34 ± 9.9 nM^2
[6]
  CC50 at 3 days: > 44.4 µM
HCV genotype 1a replicon [7]
  Antagonism Volume: −1 ± 2 nM^2%
  Synergy Volume: 34 ± 26 nM^2%

## CC(C)OC(=O)[C@H](C)N[P@](=O)(OC[C@H]1O[C@@](C#N)(c2ccc3c(N)ncnn23)[C@](C)(O)[C@@H]1OC(=O)C(C)C)Oc1ccccc1 [Compound 4]
[8]; mutant A156T
  fold change in EC50 vs wild-type GT1a: 0.2 fold
[8]; mutant D168A
  fold change in EC50 vs wild-type GT1a: 0.9 fold
[8]; mutant D168E
  fold change in EC50 vs wild-type GT1a: 1.5 fold
[8]; mutant D168G
  fold change in EC50 vs wild-type GT1a: 0.8 fold
[8]; mutant D168H
  fold change in EC50 vs wild-type GT1a: 1.0 fold
[8]; mutant D168N
  fold change in EC50 vs wild-type GT1a: 1.0 fold
[8]; mutant D168V
  fold change in EC50 vs wild-type GT1a: 1.4 fold
[8]; mutant D168Y
  fold change in EC50 vs wild-type GT1a: 1.0 fold
[8]; mutant R155I
  fold change in EC50 vs wild-type GT1a: 0.6 fold
[8]; mutant R155K
  fold change in EC50 vs wild-type GT1a: 0.7 fold
[8]; mutant R155K + L31M
  fold change in EC50 vs wild-type GT1a: 0.4 fold
[8]; mutant R155K + L31M + Y448H
  fold change in EC50 vs wild-type GT1a: 0.6 fold
[8]; mutant R155K + M28T
  fold change in EC50 vs wild-type GT1a: 0.2 fold
[8]; mutant R155K + M28T + Y448H
  fold change in EC50 vs wild-type GT1a: 0.3 fold
[8]; mutant R155K + Q30H + Y448H
  fold change in EC50 vs wild-type GT1a: 0.9 fold
[8]; mutant R155K + Q30R
  fold change in EC50 vs wild-type GT1a: 0.9 fold
[8]; mutant R155K + Y93H
  fold change in EC50 vs wild-type GT1a: 0.3 fold
[8]; mutant R155K + Y488H (first line, r20)
  fold change in EC50 vs wild-type GT1a: 0.7 fold
[8]; mutant R155K + Y488H (second line, r26)
  fold change in EC50 vs wild-type GT1a: 0.5 fold
[8]; mutant R155M
  fold change in EC50 vs wild-type GT1a: 0.4 fold
[8]; mutant R155S
  fold change in EC50 vs wild-type GT1a: 0.2 fold
[8]; mutant R155T
  fold change in EC50 vs wild-type GT1a: 0.2 fold
[8]; mutant R155W
  fold change in EC50 vs wild-type GT1a: 0.7 fold
[8]; mutant R155k + Q30H
  fold change in EC50 vs wild-type GT1a: 0.6 fold
[9]; mutant A156D
  fold change in EC50 vs wild-type GT1b: 0.4 fold
[9]; mutant A156G
  fold change in EC50 vs wild-type GT1b: 0.6 fold
[9]; mutant A156T
  fold change in EC50 vs wild-type GT1b: 0.9 fold
[9]; mutant A156V
  fold change in EC50 vs wild-type GT1b: 0.6 fold
[9]; mutant D168A
  fold change in EC50 vs wild-type GT1b: 1.0 fold
[9]; mutant D168E
  fold change in EC50 vs wild-type GT1b: 1.0 fold
[9]; mutant D168E + L31V + Y448H
  fold change in EC50 vs wild-type GT1b: 1.1 fold
[9]; mutant D168E + Y93H + Y448H
  fold change in EC50 vs wild-type GT1b: 0.9 fold
[9]; mutant D168E + Y448H
  fold change in EC50 vs wild-type GT1b: 0.7 fold
[9]; mutant D168G
  fold change in EC50 vs wild-type GT1b: 0.7 fold
[9]; mutant D168H
  fold change in EC50 vs wild-type GT1b: 1.7 fold
[9]; mutant D168H + C445F
  fold change in EC50 vs wild-type GT1b: 0.5 fold
[9]; mutant D168L + C445F
  fold change in EC50 vs wild-type GT1b: 0.3 fold
[9]; mutant D168N
  fold change in EC50 vs wild-type GT1b: 1.2 fold
[9]; mutant D168T
  fold change in EC50 vs wild-type GT1b: 1.4 fold
[9]; mutant D168V
  fold change in EC50 vs wild-type GT1b: 0.9 fold
[9]; mutant D168V + C445F
  fold change in EC50 vs wild-type GT1b: 0.7 fold
[9]; mutant D168V + L31V + Y448H
  fold change in EC50 vs wild-type GT1b: 0.6 fold
[9]; mutant D168V + Y93H + Y448H
  fold change in EC50 vs wild-type GT1b: 0.8 fold
[9]; mutant D168V + Y448H
  fold change in EC50 vs wild-type GT1b: 0.9 fold
[9]; mutant D168Y
  fold change in EC50 vs wild-type GT1b: 0.5 fold
[9]; mutant L31V + D168E
  fold change in EC50 vs wild-type GT1b: 1.6 fold
[9]; mutant L31V + D168V
  fold change in EC50 vs wild-type GT1b: 1.1 fold
[9]; mutant R155C
  fold change in EC50 vs wild-type GT1b: 0.8 fold
[9]; mutant R155G
  fold change in EC50 vs wild-type GT1b: 0.2 fold
[9]; mutant R155K
  fold change in EC50 vs wild-type GT1b: 0.6 fold
[9]; mutant R155L
  fold change in EC50 vs wild-type GT1b: 0.7 fold
[9]; mutant R155Q
  fold change in EC50 vs wild-type GT1b: 0.8 fold
[9]; mutant R155W
  fold change in EC50 vs wild-type GT1b: 0.5 fold
[9]; mutant Y93H + D168E
  fold change in EC50 vs wild-type GT1b: 1.3 fold
[9]; mutant Y93H + D168V
  fold change in EC50 vs wild-type GT1b: 1.0 fold
[3]
  Compound concentration able to induce replicon RNA 1-1.5 log drop: 1000 nM
[4]; in combination with Ribavirin
  Antagonism Volume (cytotoxicity): −1 ± 2 μM^2%
  Interaction (cytotoxicity): Additivity (Additivity: ≦25 and >−25 nM^2%)
  Synergy Volume (cytotoxicity): 4 ± 3 μM^2%
[5]; [11]
  susceptibility of mutants: full susceptibility
[5]; [12]
  susceptibility of mutants: susceptible
[6]
  CC50 at 3 days: > 44.4 µM

## NC(=O)c1ncn([C@@H]2O[C@H](CO)[C@@H](O)[C@H]2O)n1 [Ribavirin, 1-β-D-ribofuranosyl-1H-1,2,4-Triazole-3-carboxamide, reference compound]
[10]
  steady-state plasma concentration: 6 to 11 µM
HCV genotype 1a replicon [1]
  EC50: 36.5 ± 17.5 µM
GT-1b Huh-lunet cells
  Antagonism Volume: −12 ± 9 nM^2
  Interaction: Additive
  Synergy Volume: 12 ± 8 nM^2
[5]; [11]
  susceptibility of mutants: full susceptibility
[5]; [12]
  susceptibility of mutants: susceptible
HCV 1b replicon system
  Antagonism Volume: −0.5 ± 0.1 nM^2
  Interaction: Moderate Synergy
  Synergy Volume: 61 nM^2 and 61 ± 0.5 nM^2
[6]
  CC50 at 3 days: > 88.8 µM
HCV genotype 1a replicon [7]
  Antagonism Volume: −43 nM^2% and −43 ± 20 nM^2%
  Synergy Volume: 1 ± 1 nM^2%
